Where a name gives a salt, the structure may show the parent alone.
Experiments:
[1] = molecular target: T1, recombinant human NK1 receptors (Homo sapiens, UniProt P25103); test: NK1-receptor binding affinity: displacement of [3H]-substance P from CHO cell membranes; details: average of at least two determinations, [3H]-substance P displacement, read-out: pki (negative logarithm of the inhibition constant Ki of displacer ligands) (converted)
T1 construct: expressed in transfected cells; host or cells: Chinese Hamster Ovary (CHO) cells, membrane preparation
T1 sequence (P25103 whole entry): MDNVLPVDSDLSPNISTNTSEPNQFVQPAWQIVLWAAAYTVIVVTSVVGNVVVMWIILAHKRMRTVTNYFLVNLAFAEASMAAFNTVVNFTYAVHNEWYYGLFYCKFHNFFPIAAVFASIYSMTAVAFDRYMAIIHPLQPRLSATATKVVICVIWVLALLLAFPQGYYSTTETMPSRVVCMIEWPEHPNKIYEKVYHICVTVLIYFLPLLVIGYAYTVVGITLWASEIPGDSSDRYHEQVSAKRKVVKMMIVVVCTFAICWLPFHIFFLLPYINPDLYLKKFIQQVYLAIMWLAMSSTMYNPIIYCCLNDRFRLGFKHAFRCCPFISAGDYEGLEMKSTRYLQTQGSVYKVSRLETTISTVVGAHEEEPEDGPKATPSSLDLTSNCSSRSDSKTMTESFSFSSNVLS
Description: Thus ligand binding was performed in 0.4 ml of 50 mM HEPES, pH 7.4, containing 3 mM MnCl2, 0.02% BSA, 0.5 nM [^3H]Substance P (30+56 Ci/mmol, Amersham), a final membrane concentration of 25 μg of protein/ml, and the test compounds. The incubation proceeded at room temperature for 40 min.
The affinity of the compound of the invention for NK1 receptor was determined using the NK1-receptor binding affinity method measuring in vitro by the compounds' ability to displace [3H]—substance P (SP) from recombinant human NK1 receptors expressed in Chinese Hamster Ovary (CHO) cell membranes. The affinity values are expressed as negative logarithm of the inhibition constant (Ki) of displacer ligands (pKi).

nk1 receptor = molecular target: T2, nk1 receptor (Meriones unguiculatus, UniProt Q5DUB1); test: gerbil foot tapping model (hind foot tapping induced by icv NK1 agonist); assay type: in vivo; details: oral administration, one hour before icv NK1 agonist; dose inhibiting tapping by 50%
T2 construct: from tissue; host or cells: living gerbil, central NK1 receptors (agonist infused icv)
T2 sequence (Q5DUB1 whole entry, the tested form may be a part): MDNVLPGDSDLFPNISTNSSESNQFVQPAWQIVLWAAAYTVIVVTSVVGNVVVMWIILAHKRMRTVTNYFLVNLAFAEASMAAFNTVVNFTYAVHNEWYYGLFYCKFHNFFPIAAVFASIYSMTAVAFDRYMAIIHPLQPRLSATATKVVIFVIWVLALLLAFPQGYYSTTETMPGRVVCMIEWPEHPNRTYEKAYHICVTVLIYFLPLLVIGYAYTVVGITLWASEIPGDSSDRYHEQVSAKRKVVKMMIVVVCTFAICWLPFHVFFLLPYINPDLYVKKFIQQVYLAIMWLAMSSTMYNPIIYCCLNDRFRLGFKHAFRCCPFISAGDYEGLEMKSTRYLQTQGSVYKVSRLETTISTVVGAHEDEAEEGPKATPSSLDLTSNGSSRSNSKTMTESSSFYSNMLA
Description: The action of the compounds of the invention at the NK1 receptor may be determined by using conventional tests. Thus the ability to bind at the NK1 receptor was determined using the gerbil foot tapping model as described by Rupniak & Williams, Eur. J. of Pharmacol., 1994.
The ability of the compounds of the invention at the nk1 receptor may be determined using the gerbil foot tapping model as described by Rupniak & Williams, Eur. Jour. of Pharmacol., 1994.
The compound was administered orally and one hour later an NK1 agonist (e.g. delta-Aminovaleryl^6[Pro^9,Me-Leu^10]-substance P (7-11)) (3 pmol in 5 μL, icv) was infused directly in the cerebral ventricules of the animals. The duration of hind foot tapping induced by the NK1 agonist (e.g. delta-Aminovaleryl^6[Pro^9,Me-Leu^10]-substance P (7-11)) was recorded continuously for 3 min using a stopclock. […] Alternatively the compounds may be administered subcutaneously or intraperitoneally.

Ki [1] [nM] | ED50(mg/kg po) (nk1 receptor) [mg/kg] | melting point [°C] | SMILES
0.347 | 0.065 | – | Cc1cc(F)ccc1[C@H]1CN(C(=O)CN)CCN1C(=O)N(C)Cc1cc(C(F)(F)F)cc(C(F)(F)F)c1.Cl [Example 20, 4-(2-Amino-acetyl)-2-(S)-(4-fluoro-2-methyl-phenyl)-piperazine-1-carboxylic acid (3,5-bis-trifluoromethyl-benzyl)-methyl-amide hydrochloride]
2.14 | – | 220 to 230 | CN(Cc1cc(C(F)(F)F)cc(C(F)(F)F)c1)C(=O)N1CCNCC1c1ccc(F)cc1F.Cl (stereo not drawn) [Example 5, 2-(2,4-Difluoro-phenyl)-piperazine-1-carboxylic acid (3,5-bis-trifluoromethyl-benzyl)-methyl-amide hydrochloride]
0.427 | – | – | Cc1cc(F)ccc1[C@H]1CNCCN1C(=O)N(C)Cc1cc(C(F)(F)F)cc(C(F)(F)F)c1 [Example 8, (−)-2-(S)-(4-Fluoro-2-methyl-phenyl)-piperazine-1-carboxylic acid (3,5-bis-trifluoromethyl-benzyl)-methyl-amide hydrochloride]
– | – | 77 to 80 | CC(C)c1cccc(C2CNCCN2C(=O)N(C)Cc2cc(C(F)(F)F)cc(C(F)(F)F)c2)c1.Cl (stereo not drawn)
0.661 | – | > 200 | Cc1cc(F)ccc1C1CNCC(C)N1C(=O)N(C)Cc1cc(C(F)(F)F)cc(C(F)(F)F)c1.Cl (stereo not drawn) [Example 24, 2-(2-Methyl-4-fluoro-phenyl)-6-methyl-piperazine-1-carboxylic acid (3,5-bis-trifluoromethyl-benzyl)-methyl-amide hydrochloride salt]
0.407 | – | – | Cc1cc(F)ccc1[C@H]1CN(CCN)CCN1C(=O)N(C)Cc1cc(C(F)(F)F)cc(C(F)(F)F)c1 [Example 22, 4(2-Aminoethyl)-2-(S)-(4-fluoro-2-methyl-phenyl)-piperazine-1-carboxylic acid (3,5-bis-trifluoromethyl-benzyl)-methyl-amide dihydrochloride Salt]
1.07 | – | > 220 | Cc1cc(F)ccc1C1CNCCN1C(=O)N(C)Cc1cc(C(F)(F)F)cc(C(F)(F)F)c1.Cl (stereo not drawn) [Example 1, 2-(4-Fluoro-2-methyl-phenyl)-piperazine-1carboxylic acid (3,5-bistrifluoromethyl-benzyl)-methyl-amide hydrochloride]
1.66 | – | – | C=CCC(c1cc(C(F)(F)F)cc(C(F)(F)F)c1)N(C)C(=O)N1CCNCC1c1ccc(F)cc1C (single isomer, unassigned) [Example 30, 2-(4-Fluoro-2-methyl-phenyl)-piperazine-1-carboxylic acid [1-(3,5-bis-trifluoromethyl-phenyl)-but-3-enyl]-methyl-amide hydrochloride]
1.02 | – | – | Cc1cc(F)ccc1C1CNCCN1C(=O)N(C)C(c1cc(C(F)(F)F)cc(C(F)(F)F)c1)C(C)C (single isomer, unassigned) [Example 32, 2-(4-Fluoro-2-methyl-phenyl)-piperazine-1-carboxylic acid [1-(3,5-bis-trifluoromethyl-phenyl)-2-methyl-propyl]-methyl-amide hydrochloride]
0.794 | – | – | Cc1cc(F)ccc1C1CNCCN1C(=O)N(C)C(c1cc(C(F)(F)F)cc(C(F)(F)F)c1)C1CC1 (single isomer, unassigned) [Example 34, 2(4-Fluoro-2-methyl-phenyl)-piperazine-1-carboxylic acid [(3,5-bis-trifluoromethyl-phenyl)-cyclopropyl-methyl]-methyl-amide hydrochloride]
0.479 | – | – | Cc1cc(F)ccc1[C@H]1CNCCN1C(=O)N(C)C1(c2cc(C(F)(F)F)cc(C(F)(F)F)c2)CC1 [Example 25, 2-(S)-(4-Fluoro-2-methyl-phenyl)-piperazine-1-carboxylic acid [1-3,5-bis-trifluoromethyl-phenyl)-cyclopropyl]-methyl-amide hydrochloride]
– | 0.05 | – | CS(=O)(=O)O.Cc1cc(F)ccc1[C@H]1CNCCN1C(=O)N(C)[C@H](C)c1cc(C(F)(F)F)cc(C(F)(F)F)c1 [Example 36, 2(S)-(4-Fluoro-2-methyl-phenyl)-piperazine-1-carboxylic acid [1-(R)-(3,5-bis-trifluoromethyl-phenyl)-ethyl]-methyl-amide methansulphonate]
1.12 | 0.4 | – | Cc1cc(F)ccc1[C@H]1CNCCN1C(=O)N(C)C(C)(C)c1cc(C(F)(F)F)cc(C(F)(F)F)c1.Cl [Example 21, 2-(S)-(4-Fluoro-2-methyl-phenyl)-piperazine-1-carboxylic acid [1-(3,5-bis-trifluoromethyl-phenyl)-1-methyl-ethyl]-methyl-amide hydrochloride]
– | 0.04 | – | CC(=O)O.Cc1cc(F)ccc1[C@H]1CNCCN1C(=O)N(C)[C@@H](C)c1cc(C(F)(F)F)cc(C(F)(F)F)c1 [Example 19, 2-(S)-(4-Fluoro-2-methyl-phenyl)-piperazine-1-carboxylic acid [1-(S)-(3,5-bis-trifluoromethyl-phenyl)-ethyl]-methyl-amide acetate]
– | – | > 200 | CN(Cc1ccc(C(F)(F)F)c(C(F)(F)F)c1)C(=O)N1CCNCC1c1ccc(F)cc1.Cl (stereo not drawn) [Example 12]
4.37 | – | 70 to 72 | Cc1cc(C2CNCCN2C(=O)N(C)Cc2cc(C(F)(F)F)cc(C(F)(F)F)c2)ccc1F.Cl (stereo not drawn) [Example 4, 2(4-Fluoro-3-methyl-phenyl)-piperazine-1-carboxylic acid (3,5-bis-trifluoromethyl-benzyl)-methyl-amide hydrochloride]
0.479 | – | – | Cc1cc(F)ccc1C1C(C)NCCN1C(=O)N(C)Cc1cc(C(F)(F)F)cc(C(F)(F)F)c1 (stereo not drawn) [Example 23, 2-(4-Fluoro-2-methyl-phenyl)-3-methyl-piperazine-1-carboxylic acid (3,5-bis-trifluoromethyl-benzyl)-methyl-amide hydrochloride salt]
2 | – | – | CN(Cc1cc(C(F)(F)F)cc(C(F)(F)F)c1)C(=O)N1CCNCC1c1ccc(Cl)cc1Cl (stereo not drawn) [Example 14, 2-(2,4-Dichloro-phenyl)-piperazine-1-carboxylic acid (3,5-bistrifluoro methyl-benzyl)-methyl-amide hydrochloride]
1.35 | – | – | Cc1cc(F)ccc1[C@H]1CNCCN1C(=O)N1CCCCC1c1cc(C(F)(F)F)cc(C(F)(F)F)c1 (single isomer, unassigned) [Example 29, hydrochloride]
0.49 | – | – | Cc1cc(F)ccc1C1CNCCN1C(=O)N1CC=CCC1c1cc(C(F)(F)F)cc(C(F)(F)F)c1 (single isomer, unassigned) [Example 28, hydrochloride]
2 | – | – | CN(Cc1cc(C(F)(F)F)cc(C(F)(F)F)c1)C(=O)N1CCNCC1c1ccc(F)cc1 (stereo not drawn) [Example 12, hydrochloride]
